These results are taken from US12258354B2, “AhR modulators” (IDEAYA BIOSCIENCES, INC., priority 2018, dated 2025).

Structures are written as SMILES.

This test has as its target T1, hAhR (Homo sapiens, UniProt P35869).
T1 construct: Stably integrated DRE-luciferase cell lines were generated by transducing the both cell lines with Cignal XRE luciferase reporter; endogenous in cells; host or cells: HEPG2 DRE-Luc cells (only the XRE luciferase reporter was transduced)
T1 sequence (P35869 11-848): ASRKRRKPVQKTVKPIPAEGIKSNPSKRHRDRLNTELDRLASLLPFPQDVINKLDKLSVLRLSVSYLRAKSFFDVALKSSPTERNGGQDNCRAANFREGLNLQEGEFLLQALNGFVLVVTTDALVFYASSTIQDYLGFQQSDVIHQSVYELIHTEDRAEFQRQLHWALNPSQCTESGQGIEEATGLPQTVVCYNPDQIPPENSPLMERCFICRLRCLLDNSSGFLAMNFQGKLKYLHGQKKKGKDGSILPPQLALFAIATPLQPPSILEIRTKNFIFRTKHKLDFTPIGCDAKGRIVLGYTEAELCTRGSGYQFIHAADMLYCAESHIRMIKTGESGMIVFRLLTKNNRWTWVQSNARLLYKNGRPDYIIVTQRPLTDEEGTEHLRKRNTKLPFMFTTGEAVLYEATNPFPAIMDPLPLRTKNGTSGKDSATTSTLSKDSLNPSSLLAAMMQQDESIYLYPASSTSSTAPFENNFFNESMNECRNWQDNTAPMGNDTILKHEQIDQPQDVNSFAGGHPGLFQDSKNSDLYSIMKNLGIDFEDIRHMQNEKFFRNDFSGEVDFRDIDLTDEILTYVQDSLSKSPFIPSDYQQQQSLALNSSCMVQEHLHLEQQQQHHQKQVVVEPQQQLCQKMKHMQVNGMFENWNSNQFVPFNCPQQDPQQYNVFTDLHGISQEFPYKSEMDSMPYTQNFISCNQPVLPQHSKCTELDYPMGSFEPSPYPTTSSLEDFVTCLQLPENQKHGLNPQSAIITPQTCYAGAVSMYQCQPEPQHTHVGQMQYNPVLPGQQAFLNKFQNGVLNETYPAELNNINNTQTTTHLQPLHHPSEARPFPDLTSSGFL
Kind of test: DRE-luciferase transcriptional reporter assay in HEPG2 DRE-Luc cells, TCDD-induced (antagonist mode). The format is cell-based. To be noted: relative IC50, 3 nM TCDD, 24-hour incubation, firefly luciferase readout. The gist of the method:
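Stable DRE(XRE)-luciferase HEPG2 clone seeded in OptiMEM with 0.5% heat-inactivated FBS, then given a semi-log compound dilution plus TCDD at 3 nM final. After 24 h, cells were lysed and firefly luminescence read. Response was normalised between TCDD and vehicle, and relative IC50 was taken as half-reduction between the fitted curve plateaus.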
The molecule `Cc1cc(-c2ncc3cc(C(F)(F)F)ccc3n2)ccc1N1CCOc2cnn(Cc3nnn[nH]3)c2C1=O` [compound 075, 7-[2-methyl-4-[6-(trifluoromethyl)quinazolin-2-yl]phenyl]-1-[(1H-1,2,3,4-tetrazol-5-yl)methyl]-1H,5H,6H,7H,8H-pyrazolo[3,4-f][1,4]oxazepin-8-one] displayed an IC50 of 1000 to 10000 nM.
Molecule `Cc1cc(-c2ncc3cc(C(F)(F)F)ccc3n2)ccc1N1CCOc2cnn(CC(=O)O)c2C1=O` [compound 076, 2-(7-(2-methyl-4-(6-(trifluoromethyl)quinazolin-2-yl)phenyl)-8-oxo-5,6,7,8-tetrahydro-1H-pyrazolo[3,4-f][1,4]oxazepin-1-yl)acetic acid] returned an IC50 of 1000 to 10000 nM.
Turning to `Cc1cc(-c2ncc3cc(C(F)(F)F)ccc3n2)ccc1N1CCOc2cn(Cc3nnn[nH]3)nc2C1=O` [compound 077, 2-((1H-tetrazol-5-yl)methyl)-7-(2-methyl-4-(6-(trifluoromethyl)-quinazolin-2-yl)phenyl)-6,7-dihydro-2H-pyrazolo[3,4-f][1,4]oxazepin-8 (5H)-one], the 50% inhibitory concentration (IC50) was 1000 to 10000 nM.
For the molecule `Cc1cc(-c2ncc3cc(C(F)(F)F)ccc3n2)ccc1N1CCOc2cn(CC(=O)O)nc2C1=O` [compound 078, 2-(7-(2-methyl-4-(6-(trifluoromethyl)quinazolin-2-yl)phenyl)-8-oxo-5,6,7,8-tetrahydro-2H-pyrazolo[3,4-f][1,4]oxazepin-2-yl)acetic acid], the IC50 was 1000 to 10000 nM.
Molecule `Cc1cc(-c2ncc3cc(C(F)(F)F)ccc3n2)ccc1N1CCn2ncc(CO)c2C1=O` [compound 079, 3-(hydroxymethyl)-5-(2-methyl-4-(6-(trifluoromethyl)quinazolin-2-yl)phenyl)-6,7-dihydropyrazolo[1,5-a]pyrazin-4 (5H)-one] registered a 50% inhibitory concentration (IC50) of less than 200 nM.
`Cc1cc(-c2ncc3cc(C(F)(F)F)ccc3n2)ccc1N1CCn2nc(C(=O)N[C@H](C)CO)c(C)c2C1=O` [compound 080, (R)-N-(1-hydroxypropan-2-yl)-3-methyl-5-(2-methyl-4-(6-(trifluoromethyl)-quinazolin-2-yl)phenyl)-4-oxo-4,5,6,7-tetrahydropyrazolo[1,5-a]pyrazine-2-carboxamide] gave a half-maximal inhibitory concentration (IC50) of less than 200 nM.
In turn, `Cc1cc(-c2ncc3cc(C(F)(F)F)ccc3n2)ccc1N1CCn2ncc(N[C@@H](C)CO)c2C1=O` [compound 081, (S)-3-((1-hydroxypropan-2-yl)amino)-5-(2-methyl-4-(6-(trifluoromethyl)-quinazolin-2-yl)phenyl)-6,7-dihydropyrazolo[1,5-a]pyrazin-4 (5H)-one] returned a half-inhibitory concentration (IC50) of less than 200 nM.
With `Cc1cc(-c2ncc3nc(C(F)(F)F)ccc3n2)ccc1N1CCOc2c(CO)nn(C)c2C1=O` [compound 082, 3-(hydroxymethyl)-1-methyl-7-(2-methyl-4-(6-(trifluoromethyl)-pyrido-[3,2-d]pyrimidin-2-yl)phenyl)-6,7-dihydro-1H-pyrazolo[3,4-f][1,4]oxazepin-8 (5H)-one] the figure was less than 200 nM.
With `Cc1cc(-c2ncc3nc(C(F)(F)F)ccc3n2)ccc1N1CCOc2c(C(C)O)nn(C)c2C1=O` (centres unmarked) [compound 083, 3-(1-hydroxyethyl)-1-methyl-7-(2-methyl-4-(6-(trifluoromethyl)-pyrido[3,2-d]pyrimidin-2-yl)phenyl)-6,7-dihydro-1H-pyrazolo[3,4-f][1,4]oxazepin-8 (5H)-one] the figure was less than 200 nM.
`Cc1cc(-c2ncc3nc(C(F)(F)F)ccc3n2)ccc1N1CCOc2c(C(C)(C)O)nn(C)c2C1=O` [compound 084, 3-(2-hydroxypropan-2-yl)-1-methyl-7-(2-methyl-4-(6-(trifluoromethyl)pyrido[3,2-d]pyrimidin-2-yl)phenyl)-6,7-dihydro-1H-pyrazolo[3,4-f][1,4]oxazepin-8 (5H)-one] yielded a half-inhibitory concentration (IC50) of less than 200 nM.
With `Cc1cc(-c2ncc3nc(C(F)(F)F)ccc3n2)ccc1N1CCOc2c(CN(C)C)nn(C)c2C1=O` [compound 085, 3-((dimethylamino)methyl)-1-methyl-7-(2-methyl-4-(6-(trifluoromethyl)pyrido-[3,2-d]pyrimidin-2-yl)phenyl)-6,7-dihydro-1H-pyrazolo[3,4-f][1,4]oxazepin-8 (5H)-one], the half-inhibitory concentration (IC50) is less than 200 nM.
For the molecule `CCOC(=O)c1nn(C)c2c1OCCN(c1ccc(-c3ncc4nc(C(F)(F)F)ccc4n3)cc1C)C2=O` [compound 086, ethyl 1-methyl-7-(2-methyl-4-(6-(trifluoromethyl)pyrido[3,2-d]pyrimidin-2-yl)phenyl)-8-oxo-5,6,7,8-tetrahydro-1H-pyrazolo[3,4-f][1,4]oxazepine-3-carboxylate], the 50% inhibitory concentration (IC50) was less than 200 nM.
In the case of `Cc1cc(-c2ncc3nc(C(F)(F)F)ccc3n2)ccc1N1CCn2nc(CO)c(C)c2C1=O` [compound 088, 2-(hydroxymethyl)-3-methyl-5-(2-methyl-4-(6-(trifluoromethyl)-pyrido-[3,2-d]pyrimidin-2-yl)phenyl)-6,7-dihydropyrazolo[1,5-a]pyrazin-4 (5H)-one], the IC50 was less than 200 nM.
Then `Cc1cc(-c2ncc3cc(C(F)(F)F)ccc3n2)ccc1N1CCn2nc(OCCO)c(C)c2C1=O` [compound 089, 2-(2-hydroxyethoxy)-3-methyl-5-(2-methyl-4-(6-(trifluoromethyl)quinazolin-2-yl)phenyl)-6,7-dihydropyrazolo[1,5-a]pyrazin-4 (5H)-one], with less than 200 nM.
Take `Cc1cc(-c2ncc3cc(C(F)(F)F)ccc3n2)ccc1N1CC(COCc2ccccc2)n2ncc(C)c2C1=O` (centres unmarked) [compound 090, 7-((benzyloxy)methyl)-3-methyl-5-(2-methyl-4-(6-(trifluoromethyl)-quinazolin-2-yl)phenyl)-6,7-dihydropyrazolo[1,5-a]pyrazin-4 (5H)-one]: the IC50 was less than 200 nM.
`Cc1cc(-c2ncc3cc(C(F)(F)F)ccc3n2)ccc1N1CCn2nc(CN3CCOC(C)C3)c(C)c2C1=O` (centres unmarked) [compound 091, 3-methyl-5-(2-methyl-4-(6-(trifluoromethyl)quinazolin-2-yl)phenyl)-2-((2-methylmorpholino)methyl)-6,7-dihydropyrazolo[1,5-a]pyrazin-4 (5H)-one]: the IC50 was less than 200 nM.
For `Cc1cc(-c2ncc3cc(C(F)(F)F)ccc3n2)ccc1N1CCn2nc(C(C)O)cc2C1=O` (centres unmarked) [compound 092, 2-(1-hydroxyethyl)-5-(2-methyl-4-(6-(trifluoromethyl)quinazolin-2-yl)phenyl)-6,7-dihydropyrazolo[1,5-a]pyrazin-4 (5H)-one], the concentration for half-maximal inhibition (IC50) was less than 200 nM.
